Where two headings read alike, the source gives them in different places.
What was measured:
USP30 = USP30 (Homo sapiens (Human), UniProt Q70CQ3); experiment: Dundee MALDI-TOF mass spectrometry assay (IC50); assay type: biochemical; conditions: USP30 25 ng/μl, K48-linked diubiquitin 5.6 μM, avg, read-out: Dundee IC50 μM (avg in vitro MS assay)
Method: Compounds were tested in a MALDI-TOF assay based on the paper by Ritorto et al. (Ritorto et al. Screening of DUB activity and specificity by MALDI-TOF mass spectrometry. Nat. […] USP30 (25 ng/μl) tested against K48-linked diubiquitin (5.6 μM). USP30 was diluted in a buffer containing 40 mM Tris, 0.01% BSA, 1 mM DTT and K48 in 40 mM Tris, 0.01% BSA. The compounds were pre-incubated with the USP30 for 5 mins at room temp before the K48 dimer addition. The assay mixture was then incubated for 45 mins at room temp. The assay was stopped by the addition of TFA to a final concentration of 2% (v/v). […] Then 250 nl of these solutions were spotted onto an MTP AnchorChip 1,536 TF and this is analysed on the Bruker rapifleX MALDI-TOF.

[1] = biological target: recombinant USP30 (amino acids 57-517 of the human sequence) (Homo sapiens (Human), UniProt Q70CQ3); experiment: In vitro USP30 biochemical assay (Ubiquitin-Rhodamine)
[2] = USP30 IC50 μM (avg), Ubiquitin-Rhodamine substrate 25 nM, 1.5 nM recombinant USP30
[3] = read-out: USP30 IC50 μM (avg), Ubiquitin-Rhodamine substrate 25 nM, 1.5 nM recombinant USP30

Sequence of USP30 (Q70CQ3 whole entry): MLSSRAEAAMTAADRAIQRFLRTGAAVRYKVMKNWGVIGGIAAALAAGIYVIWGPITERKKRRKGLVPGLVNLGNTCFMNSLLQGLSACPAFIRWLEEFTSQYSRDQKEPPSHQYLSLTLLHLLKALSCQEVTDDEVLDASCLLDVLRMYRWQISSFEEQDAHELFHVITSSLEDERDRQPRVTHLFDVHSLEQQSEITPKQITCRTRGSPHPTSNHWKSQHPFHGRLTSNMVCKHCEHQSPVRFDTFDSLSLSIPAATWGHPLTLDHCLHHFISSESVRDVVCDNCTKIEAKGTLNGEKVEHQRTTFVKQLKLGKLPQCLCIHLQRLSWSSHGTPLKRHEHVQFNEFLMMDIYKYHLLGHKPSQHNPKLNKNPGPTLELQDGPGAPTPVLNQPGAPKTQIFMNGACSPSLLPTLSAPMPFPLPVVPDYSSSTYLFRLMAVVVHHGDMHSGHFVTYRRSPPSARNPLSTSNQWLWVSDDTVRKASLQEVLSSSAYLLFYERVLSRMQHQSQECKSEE
Sequence of recombinant USP30 (amino acids 57-517 of the human sequence) (Q70CQ3 57-517): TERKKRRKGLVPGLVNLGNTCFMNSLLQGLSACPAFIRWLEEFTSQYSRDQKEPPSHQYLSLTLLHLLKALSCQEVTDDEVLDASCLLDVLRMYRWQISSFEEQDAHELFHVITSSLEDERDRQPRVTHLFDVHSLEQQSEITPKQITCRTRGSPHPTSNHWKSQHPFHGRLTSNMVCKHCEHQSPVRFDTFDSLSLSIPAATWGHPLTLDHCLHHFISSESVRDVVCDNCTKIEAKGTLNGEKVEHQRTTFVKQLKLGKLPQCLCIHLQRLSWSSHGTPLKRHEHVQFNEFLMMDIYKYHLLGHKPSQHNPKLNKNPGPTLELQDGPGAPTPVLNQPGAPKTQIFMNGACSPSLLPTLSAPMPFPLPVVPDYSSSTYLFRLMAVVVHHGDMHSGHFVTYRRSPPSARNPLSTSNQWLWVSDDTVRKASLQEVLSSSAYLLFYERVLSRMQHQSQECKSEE

In the case of `CC1(NS(=O)(=O)c2ccc(NC(=O)[C@H](Cc3ccccc3)NC(=O)c3ccc(F)cc3)cn2)COC1` [Compound I-115, (S)-4-fluoro-N-(1-(6-(N-(3-methyloxetan-3-yl)sulfamoyl)pyridin-3-ylamino)-1-oxo-3-phenylpropan-2-yl)benzamide], the IC50 (USP30) is reported as < 0.05 µM and the IC50 [1, 2] is reported as 0.05 to 1 µM.
In the case of `CCNS(=O)(=O)c1ccc(NC(=O)[C@H](Cc2ccccc2)NC(=O)c2ccc(F)cc2)cc1F` [Compound I-155, (S)-N-(1-(4-(N-ethylsulfamoyl)-3-fluorophenylamino)-1-oxo-3-phenylpropan-2-yl)-4-fluorobenzamide], the IC50 (USP30) is reported as < 0.05 µM and the IC50 [1, 2] is reported as 0.05 to 1 µM.
`CCNS(=O)(=O)c1ccc(NC(=O)[C@H](Cc2ccccc2)NC(=O)c2ccc(F)cc2)nc1` [Compound I-117, (S)-N-(1-(5-(N-ethylsulfamoyl)pyridin-2-ylamino)-1-oxo-3-phenylpropan-2-yl)-4-fluorobenzamide] was tested, and the IC50 (USP30) was < 0.05 µM and the IC50 [1, 2] was 0.05 to 1 µM.
`CCNS(=O)(=O)c1ccc(NC(=O)[C@H](Cc2cccnc2)N(C)C(=O)c2ccc(F)cc2)cc1` [Compound I-90, (S)-N-(1-(4-(N-ethylsulfamoyl)phenylamino)-1-oxo-3-(pyridin-3-yl)propan-2-yl)-4-fluoro-N-methylbenzamide] was tested, and the IC50 (USP30) was > 10 µM and the IC50 [1, 2] was 1 to 10 µM.
For `CCNS(=O)(=O)c1cccc2c(NC(=O)[C@H](Cc3ccccc3)NC(=O)C3CCCCC3)cccc12` [Compound I-124, (S)-N-(1-(5-(N-ethylsulfamoyl)naphthalen-1-ylamino)-1-oxo-3-phenylpropan-2-yl)cyclohexanecarboxamide], the IC50 (USP30) was < 0.05 µM and the IC50 [1, 2] was 0.05 to 1 µM.
`O=C(N[C@@H](Cc1ccccc1)C(=O)Nc1ccc(S(=O)(=O)NC2CCCC2)cc1)c1ccccn1` [Compound I-77, (S)-N-(1-(4-(N-cyclopentylsulfamoyl)phenylamino)-1-oxo-3-phenylpropan-2-yl)picolinamide] gave an IC50 (USP30) of 0.05 to 1 µM and an IC50 [1, 2] of 0.05 to 1 µM.
For `Cc1cc(NC(=O)[C@H](Cc2ccccc2)NC(=O)c2ccc(F)cc2)ccc1S(=O)(=O)NC(C)(C)C` [Compound I-96, (S)-N-(1-(4-(N-tert-butylsulfamoyl)-3-methylphenylamino)-1-oxo-3-phenylpropan-2-yl)-4-fluorobenzamide], the IC50 (USP30) was 0.05 to 1 µM and the IC50 [1, 3] was < 0.05 µM.
For `CC(C)(NS(=O)(=O)c1ccc(NC(=O)[C@H](Cc2ccccc2)NC(=O)c2ccc(F)cc2)cc1)C(F)(F)F` [Compound I-25, (S)-4-fluoro-N-(1-oxo-3-phenyl-1-(4-(N-(1,1,1-trifluoro-2-methylpropan-2-yl)sulfamoyl)phenylamino)propan-2-yl)benzamide], the IC50 (USP30) was < 0.05 µM and the IC50 [1, 3] was < 0.05 µM.
In the case of `O=C(N[C@@H](Cc1ccccn1)C(=O)Nc1ccc(S(=O)(=O)NC23CC(C2)C3)cc1)c1ccc(F)cc1` [Compound I-141, (S)-N-(1-(4-(N-bicyclo[1.1.1]pentan-1-ylsulfamoyl)phenylamino)-1-oxo-3-(pyridin-2-yl)propan-2-yl)-4-fluorobenzamide], the IC50 (USP30) is reported as 0.05 to 1 µM and the IC50 [1, 2] is reported as 0.05 to 1 µM.
`O=C(N[C@@H](Cc1ccccc1)C(=O)Nc1ccc(S(=O)(=O)NC2CCCC2)cc1)c1ccc(F)cn1` [Compound I-74, (S)-N-(1-(4-(N-cyclopentylsulfamoyl)phenylamino)-1-oxo-3-phenylpropan-2-yl)-5-fluoropicolinamide] showed an IC50 (USP30) of 0.05 to 1 µM and an IC50 [1, 2] of 0.05 to 1 µM.
In the case of `CN(C(=O)c1ccc(F)cc1)[C@@H](Cc1cccnc1)C(=O)Nc1ccc(S(=O)(=O)NC23CC(C2)C3)cc1` [Compound I-92, (S)-N-(1-(4-(N-bicyclo[1.1.1]pentan-1-ylsulfamoyl)phenylamino)-1-oxo-3-(pyridin-3-yl)propan-2-yl)-4-fluoro-N-methylbenzamide], the IC50 (USP30) is reported as 1 to 10 µM and the IC50 [1, 2] is reported as 1 to 10 µM.
For `O=C(N[C@@H](Cc1ccccc1)C(=O)Nc1ccc(S(=O)(=O)NCCCN2CCOCC2)nc1)c1ccc(F)cc1` [Compound I-112, (S)-4-fluoro-N-(1-(6-(N-(3-morpholinopropyl)sulfamoyl)pyridin-3-ylamino)-1-oxo-3-phenylpropan-2-yl)benzamide], the IC50 (USP30) was 0.05 to 1 µM and the IC50 [1, 2] was 0.05 to 1 µM.
With `CNS(=O)(=O)c1ccc(NC(=O)[C@H](Cc2ccccc2)NC(=O)c2ccc(F)cc2)cc1` [Compound I-30, (S)-4-fluoro-N-(1-(4-(N-methylsulfamoyl)phenylamino)-1-oxo-3-phenylpropan-2-yl)benzamide] the IC50 (USP30) was 0.05 to 1 µM and the IC50 [1, 2] was 0.05 to 1 µM.
For `O=C(NC1(C(=O)Nc2ccc(S(=O)(=O)NC34CC(C3)C4)cc2)Cc2ccccc2C1)c1ccc(F)cc1` [Compound I-102, N-(4-(N-bicyclo[1.1.1]pentan-1-ylsulfamoyl)phenyl)-2-(4-fluorobenzamido)-2,3-dihydro-1H-indene-2-carboxamide], the IC50 (USP30) was 0.05 to 1 µM and the IC50 [1, 3] was > 10 µM.
For `CC(C)(C)OCCNS(=O)(=O)c1ccc(NC(=O)[C@H](Cc2ccccc2)NC(=O)c2ccc(F)cc2)cn1` [Compound I-114, (S)-N-(1-(6-(N-(2-tert-butoxyethyl)sulfamoyl)pyridin-3-ylamino)-1-oxo-3-phenylpropan-2-yl)-4-fluorobenzamide], the IC50 (USP30) was 0.05 to 1 µM and the IC50 [1, 2] was 0.05 to 1 µM.
With `CN(C(=O)c1ccc(F)cc1)[C@@H](Cc1cccnc1)C(=O)Nc1ccc(S(=O)(=O)NC(C)(C)C)cc1` [Compound I-91, (S)-N-(1-(4-(N-tert-butylsulfamoyl)phenylamino)-1-oxo-3-(pyridin-3-yl)propan-2-yl)-4-fluoro-N-methylbenzamide] the IC50 (USP30) was 0.05 to 1 µM and the IC50 [1, 2] was 0.05 to 1 µM.
In the case of `COc1cc(NC(=O)[C@H](Cc2ccccc2)NC(=O)c2ccc(F)cc2)ccc1S(=O)(=O)NCCO` [Compound I-152, (S)-4-fluoro-N-(1-(4-(N-(2-hydroxyethyl)sulfamoyl)-3-methoxyphenylamino)-1-oxo-3-phenylpropan-2-yl)benzamide], the IC50 (USP30) is reported as < 0.05 µM and the IC50 [1, 2] is reported as 0.05 to 1 µM.
Work on `CC(C)(C)C[S+]([O-])c1ccc(NC(=O)[C@H](Cc2ccccc2)NC(=O)c2ccc(F)cc2)cc1` (stereo partly drawn) [Compound I-4, 4-fluoro-N-((2S)-1-(4-(neopentylsulfinyl)phenylamino)-1-oxo-3-phenylpropan-2-yl)benzamide] yielded an IC50 (USP30) of 0.05 to 1 µM and an IC50 [1, 2] of 1 to 10 µM.
Molecule `O=C(N[C@@H](Cc1ccccn1)C(=O)Nc1ccc(S(=O)(=O)NC2COC2)cc1)c1ccc(F)cc1` [Compound I-140, (S)-4-fluoro-N-(1-(4-(N-oxetan-3-ylsulfamoyl)phenylamino)-1-oxo-3-(pyridin-2-yl)propan-2-yl)benzamide] has an IC50 (USP30) of 0.05 to 1 µM and an IC50 [1, 2] of 0.05 to 1 µM.
Molecule `CC(C)(CO)NS(=O)(=O)c1ccc(NC(=O)[C@H](Cc2ccccc2)NC(=O)c2ccc(F)cc2)cn1` [Compound I-116, (S)-4-fluoro-N-(1-(6-(N-(1-hydroxy-2-methylpropan-2-yl)sulfamoyl)pyridin-3-ylamino)-1-oxo-3-phenylpropan-2-yl)benzamide] has an IC50 (USP30) of 0.05 to 1 µM and an IC50 [1, 2] of 0.05 to 1 µM.
`COCCNS(=O)(=O)c1ccc(NC(=O)[C@H](Cc2ccccc2)NC(=O)c2ccc(F)cc2)nc1` [Compound I-120, (S)-4-fluoro-N-(1-(5-(N-(2-methoxyethyl)sulfamoyl)pyridin-2-ylamino)-1-oxo-3-phenylpropan-2-yl)benzamide] was tested, and the IC50 (USP30) was 0.05 to 1 µM and the IC50 [1, 2] was 0.05 to 1 µM.
For `COc1cc(S(=O)(=O)NC2COC2)ccc1NC(=O)[C@H](Cc1ccccc1)NC(=O)c1ccc(F)cc1` [Compound I-144, (S)-4-fluoro-N-(1-(2-methoxy-4-(N-oxetan-3-ylsulfamoyl)phenylamino)-1-oxo-3-phenylpropan-2-yl)benzamide], the IC50 (USP30) was 0.05 to 1 µM and the IC50 [1, 2] was 0.05 to 1 µM.
`O=C(N[C@@H](Cc1ccccc1)C(=O)Nc1ccc(S(=O)(=O)NC23CC(C2)C3)cc1)c1cccnc1` [Compound I-79, (S)-N-(1-(4-(N-bicyclo[1.1.1]pentan-1-ylsulfamoyl)phenylamino)-1-oxo-3-phenylpropan-2-yl)nicotinamide] was tested, and the IC50 (USP30) was 0.05 to 1 µM and the IC50 [1, 2] was 1 to 10 µM.
In the case of `O=C(N[C@@H](Cc1ccccc1)C(=O)Nc1ccc(S(=O)(=O)NC2COC2)cn1)c1ccc(F)cc1` [Compound I-119, (S)-4-fluoro-N-(1-(5-(N-oxetan-3-ylsulfamoyl)pyridin-2-ylamino)-1-oxo-3-phenylpropan-2-yl)benzamide], the IC50 (USP30) is reported as 0.05 to 1 µM and the IC50 [1, 2] is reported as 0.05 to 1 µM.
For `CN1CCC(NS(=O)(=O)c2ccc(NC(=O)[C@H](Cc3ccccc3)NC(=O)c3ccc(F)cc3)cc2)CC1` [Compound I-33, (S)-4-fluoro-N-(1-(4-(N-(1-methylpiperidin-4-yl)sulfamoyl)phenylamino)-1-oxo-3-phenylpropan-2-yl)benzamide], the IC50 (USP30) was 0.05 to 1 µM and the IC50 [1, 2] was 0.05 to 1 µM.
In the case of `Cc1cc(NC(=O)[C@H](Cc2ccccc2)NC(=O)c2ccc(F)cn2)ccc1S(=O)(=O)NC12CC(C1)C2` [Compound I-98, (S)-N-(1-(4-(N-bicyclo[1.1.1]pentan-1-ylsulfamoyl)-3-methylphenylamino)-1-oxo-3-phenylpropan-2-yl)-5-fluoropicolinamide], the IC50 (USP30) is reported as 0.05 to 1 µM and the IC50 [1, 2] is reported as 0.05 to 1 µM.
`O=C(N[C@H](Cc1ccccc1)C(=O)Nc1ccc(S(=O)(=O)NC23CC(C2)C3)cc1)c1ccc(F)cc1` [Compound I-99, (R)-N-(1-(4-(N-bicyclo[1.1.1]pentan-1-ylsulfamoyl)phenylamino)-1-oxo-3-phenylpropan-2-yl)-4-fluorobenzamide] was tested, and the IC50 (USP30) was > 10 µM and the IC50 [1, 3] was > 10 µM.

Source: patent publication US11845724B2, “USP30 inhibitors and uses thereof” (Vincere Biosciences, Inc., priority 2019, dated 2023)
